Test results taken from US20250171438A1 (Agios Pharmaceuticals, Inc., priority 2022, published 2025).

Molecular target: T1, human PAH with the R408W mutation (Homo sapiens, UniProt P00439, R408W)
T1 construct: expressed in transfected cells
T1 sequence (P00439 1-452 R408W): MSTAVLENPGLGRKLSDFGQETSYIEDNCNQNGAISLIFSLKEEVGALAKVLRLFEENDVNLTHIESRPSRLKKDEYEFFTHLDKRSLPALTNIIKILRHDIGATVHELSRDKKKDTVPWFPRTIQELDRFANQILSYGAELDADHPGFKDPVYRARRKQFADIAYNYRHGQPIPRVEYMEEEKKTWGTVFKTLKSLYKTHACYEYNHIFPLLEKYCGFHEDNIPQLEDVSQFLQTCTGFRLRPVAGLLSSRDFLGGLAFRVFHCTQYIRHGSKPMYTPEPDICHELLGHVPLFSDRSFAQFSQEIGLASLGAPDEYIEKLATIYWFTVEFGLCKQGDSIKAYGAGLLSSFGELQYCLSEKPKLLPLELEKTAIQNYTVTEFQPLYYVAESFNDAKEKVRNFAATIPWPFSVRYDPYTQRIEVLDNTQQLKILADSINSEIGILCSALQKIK
Experiment: Cell Based Phenylalanine Flux Assay
Settings: A375 cells expressing human R408W PAH; 24 hrs compound incubation; 13C-Tyrosine by LC-MS; average where tested multiple times; read-out: AC50

| AC50 [nM] | Compound |
| --- | --- |
| 500 to 1000 | O=C(c1ccno1)N1CCc2[nH]cnc2[C@H]1c1nc2ccccc2s1 [Example 1123] |
| > 5000 | O=C(c1ccno1)N1CCc2[nH]cnc2[C@@H]1c1nc2ccccc2s1 [Example 1124, (R)-(4-(benzo[d]thiazol-2-yl)-6,7-dihydro-1H-imidazo[4,5-c]pyridin-5(4H)-yl)(isoxazol-5-yl)methanone] |
| 1000 to 5000 | Cc1ccn2ncc(C(=O)N3CCc4[nH]cnc4[C@H]3c3nc4ccccc4s3)c2c1 [Example 1125] |
| 1000 to 5000 | Cc1ccn2ncc(C(=O)N3CCc4[nH]cnc4[C@@H]3c3nc4ccccc4s3)c2c1 [Example 1126, (R)-(4-(benzo[d]thiazol-2-yl)-6,7-dihydro-1H-imidazo[4,5-c]pyridin-5(4H)-yl)(5-methylpyrazolo[1,5-a]pyridin-3-yl)methanone] |
| 500 to 1000 | O=C(c1cc2cccnn2c1)N1CCc2[nH]cnc2[C@H]1c1nc2ccccc2s1 [Example 1127] |
| > 5000 | O=C(c1cc2cccnn2c1)N1CCc2[nH]cnc2[C@@H]1c1nc2ccccc2s1 [Example 1128, (R)-(4-(benzo[d]thiazol-2-yl)-6,7-dihydro-1H-imidazo[4,5-c]pyridin-5(4H)-yl)(pyrrolo[1,2-b]pyridazin-6-yl)methanone] |
| < 500 | O=C(c1nc2ccccc2o1)N1CCc2[nH]cnc2[C@H]1c1nc2ccccc2s1 [Example 1129, (S)-benzo[d]oxazol-2-yl(4-(benzo[d]thiazol-2-yl)-1,4,6,7-tetrahydro-5H-imidazo[4,5-c]pyridin-5-yl)methanone] |
| 1000 to 5000 | O=C(c1nc2ccccc2o1)N1CCc2[nH]cnc2[C@@H]1c1nc2ccccc2s1 [Example 1130, (R)-benzo[d]oxazol-2-yl(4-(benzo[d]thiazol-2-yl)-1,4,6,7-tetrahydro-5H-imidazo[4,5-c]pyridin-5-yl)methanone] |
| 500 to 1000 | O=C(c1nc2ccccc2[nH]1)N1CCc2[nH]cnc2[C@H]1c1nc2ccccc2s1 [Example 1131] |
| 1000 to 5000 | O=C(c1nc2ccccc2[nH]1)N1CCc2[nH]cnc2[C@@H]1c1nc2ccccc2s1 [Example 1132, (R)-(1H-benzo[d]imidazol-2-yl)(4-(benzo[d]thiazol-2-yl)-6,7-dihydro-1H-imidazo[4,5-c]pyridin-5(4H)-yl)methanone] |
| 500 to 1000 | O=C(c1cnn2ccc(Br)cc12)N1CCc2[nH]cnc2[C@H]1c1nc2ccc(F)cc2s1 [Example 1137] |
| 1000 to 5000 | O=C(c1cnn2ccc(Br)cc12)N1CCc2[nH]cnc2[C@@H]1c1nc2ccc(F)cc2s1 [Example 1138, (R)-(5-bromopyrazolo[1,5-a]pyridin-3-yl)(4-(6-fluorobenzo[d]thiazol-2-yl)-6,7-dihydro-1H-imidazo[4,5-c]pyridin-5(4H)-yl)methanone] |
| > 5000 | O=C(c1scnc1Cl)N1CCc2[nH]cnc2[C@@H]1c1nc2ccc(F)cc2s1 [Example 1141] |
| 500 to 1000 | O=C(c1nc(Cl)cs1)N1CCc2[nH]cnc2[C@H]1c1nc2ccc(F)cc2s1 [Example 1142] |
| 500 to 1000 | O=C(c1ncn2ccccc12)N1CCc2[nH]cnc2[C@H]1c1nc2c(F)cccc2s1 [Example 1143, (S)-(4-(4-fluorobenzo[d]thiazol-2-yl)-6,7-dihydro-1H-imidazo[4,5-c]pyridin-5(4H)-yl)(imidazo[1,5-a]pyridin-1-yl)methanone] |
| > 5000 | O=C(c1ncn2ccccc12)N1CCc2[nH]cnc2[C@@H]1c1nc2c(F)cccc2s1 [Example 1144, (R)-(4-(4-fluorobenzo[d]thiazol-2-yl)-6,7-dihydro-1H-imidazo[4,5-c]pyridin-5(4H)-yl)(imidazo[1,5-a]pyridin-1-yl)methanone] |
| < 500 | O=C(c1cnn2c(Br)cccc12)N1CCc2[nH]cnc2[C@H]1c1nc2ccc(F)cc2s1 [Example 1149] |
| > 5000 | O=C(c1cnn2c(Br)cccc12)N1CCc2[nH]cnc2[C@@H]1c1nc2ccc(F)cc2s1 [Example 1150, (R)-(7-bromopyrazolo[1,5-a]pyridin-3-yl)(4-(6-fluorobenzo[d]thiazol-2-yl)-6,7-dihydro-1H-imidazo[4,5-c]pyridin-5(4H)-yl)methanone] |
| < 500 | O=C(c1cnn2ccc(Cl)cc12)N1CCc2[nH]cnc2[C@H]1c1nc2ccc(F)cc2s1 [Example 1151] |
| > 5000 | O=C(c1cnn2ccc(Cl)cc12)N1CCc2[nH]cnc2[C@@H]1c1nc2ccc(F)cc2s1 [Example 1152, (R)-(5-chloropyrazolo[1,5-a]pyridin-3-yl)(4-(6-fluorobenzo[d]thiazol-2-yl)-6,7-dihydro-1H-imidazo[4,5-c]pyridin-5(4H)-yl)methanone] |
| 500 to 1000 | N#Cc1ccn2ncc(C(=O)N3CCc4[nH]cnc4[C@H]3c3nc4ccc(F)cc4s3)c2c1 [Example 1155, (S)-3-(4-(6-fluorobenzo[d]thiazol-2-yl)-4,5,6,7-tetrahydro-1H-imidazo[4,5-c]pyridine-5-carbonyl)pyrazolo[1,5-a]pyridine-5-carbonitrile] |
| > 5000 | N#Cc1ccn2ncc(C(=O)N3CCc4[nH]cnc4[C@@H]3c3nc4ccc(F)cc4s3)c2c1 [Example 1156, (R)-3-(4-(6-fluorobenzo[d]thiazol-2-yl)-4,5,6,7-tetrahydro-1H-imidazo[4,5-c]pyridine-5-carbonyl)pyrazolo[1,5-a]pyridine-5-carbonitrile] |

The remaining lines, values behind:

| Compound | AC50 [nM] |
| --- | --- |
| O=C(c1nccs1)N1CCc2nc[nH]c2[C@H]1c1nc2c(F)cccc2s1 [Example 1120, (S)-(4-(4-fluorobenzo[d]thiazol-2-yl)-6,7-dihydro-3H-imidazo[4,5-c]pyridin-5(4H)-yl)(thiazol-2-yl)methanone] | 500 to 1000 |
| O=C(CCc1nccs1)N1CCc2[nH]cnc2[C@H]1c1nc2cccc(Br)c2s1 [Example 1121, (S)-1-(4-(7-bromobenzo[d]thiazol-2-yl)-6,7-dihydro-1H-imidazo[4,5-c]pyridin-5(4H)-yl)-3-(thiazol-2-yl)propan-1-one] | 500 to 1000 |
| O=C(CCc1nccs1)N1CCc2[nH]cnc2[C@@H]1c1nc2cccc(Br)c2s1 [Example 1122, (R)-1-(4-(7-bromobenzo[d]thiazol-2-yl)-6,7-dihydro-1H-imidazo[4,5-c]pyridin-5(4H)-yl)-3-(thiazol-2-yl)propan-1-one] | 1000 to 5000 |
| O=C(CCC1CC1)N1CCc2[nH]cnc2[C@H]1c1nc2cccc(F)c2s1 [Example 1133, (S)-3-cyclopropyl-1-(4-(7-fluorobenzo[d]thiazol-2-yl)-6,7-dihydro-1H-imidazo[4,5-c]pyridin-5(4H)-yl)propan-1-one] | 500 to 1000 |
| O=C(CCC1CC1)N1CCc2[nH]cnc2[C@@H]1c1nc2cccc(F)c2s1 [Example 1134, (R)-3-cyclopropyl-1-(4-(7-fluorobenzo[d]thiazol-2-yl)-6,7-dihydro-1H-imidazo[4,5-c]pyridin-5(4H)-yl)propan-1-one] | 1000 to 5000 |
| O=C(CC1CC1)N1CCc2[nH]cnc2[C@H]1c1nc2cc(F)ccc2s1 [Example 1135, (S)-2-cyclopropyl-1-(4-(5-fluorobenzo[d]thiazol-2-yl)-6,7-dihydro-1H-imidazo[4,5-c]pyridin-5(4H)-yl)ethanone] | 500 to 1000 |
| O=C(CC1CC1)N1CCc2[nH]cnc2[C@@H]1c1nc2cc(F)ccc2s1 [Example 1136, (R)-2-cyclopropyl-1-(4-(5-fluorobenzo[d]thiazol-2-yl)-6,7-dihydro-1H-imidazo[4,5-c]pyridin-5(4H)-yl)ethanone] | 1000 to 5000 |
| c1ccc2sc([C@@H]3c4nc[nH]c4CCN3Cc3nccs3)nc2c1 [Example 1139, (S)-2-(5-(thiazol-2-ylmethyl)-4,5,6,7-tetrahydro-1H-imidazo[4,5-c]pyridin-4-yl)benzo[d]thiazole] | 500 to 1000 |
| c1ccc2sc([C@H]3c4nc[nH]c4CCN3Cc3nccs3)nc2c1 [Example 1140, (R)-2-(5-(thiazol-2-ylmethyl)-4,5,6,7-tetrahydro-1H-imidazo[4,5-c]pyridin-4-yl)benzo[d]thiazole] | 1000 to 5000 |
| O=C(CCC1CC1)N1CCc2[nH]cnc2[C@H]1c1nc2ccc(Br)cc2s1 [Example 1145, (S)-1-(4-(6-bromobenzo[d]thiazol-2-yl)-6,7-dihydro-1H-imidazo[4,5-c]pyridin-5(4H)-yl)-3-cyclopropylpropan-1-one] | < 500 |
| O=C(CCC1CC1)N1CCc2[nH]cnc2[C@@H]1c1nc2ccc(Br)cc2s1 [Example 1146, (R)-1-(4-(6-bromobenzo[d]thiazol-2-yl)-6,7-dihydro-1H-imidazo[4,5-c]pyridin-5(4H)-yl)-3-cyclopropylpropan-1-one] | 500 to 1000 |
| O=C(CC1CC1)N1CCc2[nH]cnc2[C@@H]1c1nc2ccc(Br)cc2s1 [Example 1147, (R)-1-(4-(6-bromobenzo[d]thiazol-2-yl)-6,7-dihydro-1H-imidazo[4,5-c]pyridin-5(4H)-yl)-2-cyclopropylethanone] | 500 to 1000 |
| O=C(CC1CC1)N1CCc2[nH]cnc2[C@H]1c1nc2ccc(Br)cc2s1 [Example 1148, (S)-1-(4-(6-bromobenzo[d]thiazol-2-yl)-6,7-dihydro-1H-imidazo[4,5-c]pyridin-5(4H)-yl)-2-cyclopropylethanone] | < 500 |
| O=C(C1CCC1)N1CCc2[nH]cnc2[C@H]1c1nc2ccccc2s1 [Example 1153] | < 500 |
| O=C(C1CCC1)N1CCc2[nH]cnc2[C@@H]1c1nc2ccccc2s1 [Example 1154, (R)-(4-(benzo[d]thiazol-2-yl)-6,7-dihydro-1H-imidazo[4,5-c]pyridin-5(4H)-yl)(cyclobutyl)methanone] | > 5000 |
